Data set [1] deals with Streptococcus mutans ATCC 27607. Briefly: Inhibition of Streptococcus mutans adherence (adhered plaque turbidity). Particulars: for Turbidity (600 nm): 37° C., 14 hours; for inhibition at 50 µg/mL / inhibition at 100 µg/mL: Streptococcus mutans, ATCC27607, 14 h. Type of data set: cell-based. On the procedure: Heart Infusion bouillon (Difco) containing various concentrations of sucrose was autoclaved and added aseptically with various amounts of ribocitrin aqueous solution (filter-sterilized) or sterile water for control (final volume is 3.0 ml and final concentrations are shown in Table 1). Each tube was inoculated with 1×10^5 CFU of Streptococcus mutans ATCC 27607 grown overnight at 37° C. in Brain Heart Infusion bouillon (Difco) and incubated anaerobically in a candle jar at 37° C. for 14 hours. The tube was positioned at an angle 30° from the horizontal. Nonadherent cells were removed by pouring off the broth and the test tube was washed three times with 3 ml of 5 mM phosphate buffer (pH 6.0). The adhered plaque (insoluble dextran and cellular aggregates formed as a result of insoluble dextran production) was suspended in 3 ml of phosphate buffer described above by mechanical stirring and by scraping the surface with a glass rod. Turbidity of the suspension was measured at 600 nm.

Data set [2] can be described thus: Solubility (characterizing properties). Particulars: sodium salt. Type of data set: physicochemical. An excerpt:
Ribocitrin in the form of its sodium salt has the following characterizing properties:
2. Soluble in water; insoluble in organic solvents.

In another data set the test system is dextransucrase. Briefly: Inhibitory activity to dextransucrase (turbidity at 600 nm). Type of data set: biochemical, Streptococcus mutans ATCC 27607. Particulars: qualitative statement; curve only in FIG. 4. The protocol: Dextransucrase was prepared as follows: Streptococcus mutans ATCC 27607 was inoculated to Brain Heart Infusion bouillon (Eiken Chemical Co.) and grown overnight at 37° C. The culture supernatant obtained by centrifugation was precipitated with ammonium sulfate at 50% saturation. The precipitated enzyme was desalted and purified by conventional procedures.

Counter-ions that a name gives are not always drawn. Like-named read-outs stand apart in the source and are kept apart here.

The values that follow come from patent publication US4426447A, “Homocitric acid oligoriboside derivative for prevention of dental caries” (Zaidan Hojin Biseibutsu Kagaku Kenkyu Kai, priority 1980, dated 1984).

As for `O=C(O)CC[C@@](CC(=O)O)(O[C@H]1O[C@H](CO)[C@@H](O[C@H]2O[C@H](CO)[C@@H](O)[C@H]2O[C@H]2O[C@H](CO)[C@@H](O)[C@H]2O)[C@H]1O)C(=O)O` [Ribocitrin (sodium salt)], the “Turbidity (600 nm)” value in data set [1] (50 μg/ml ribocitrin sodium salt, 0.5% sucrose) was 0.510; in data set [1] (50 μg/ml ribocitrin sodium salt, 1.0% sucrose) it was 0.340; in data set [1] (50 μg/ml ribocitrin sodium salt, 2.0% sucrose) it was 0.333; in data set [1] (100 μg/ml ribocitrin sodium salt, 0.5% sucrose), 0.249; in data set [1] (100 μg/ml ribocitrin sodium salt, 1.0% sucrose) it was 0.173; in data set [1] (100 μg/ml ribocitrin sodium salt, 2.0% sucrose), 0.132. The inhibition at 50 µg/mL in data set [1] (read-out: Percent inhibition, 50 μg/ml ribocitrin sodium salt, 0.5% sucrose, 37° C.) came out at 17%; in data set [1] (read-out: Percent inhibition, 50 μg/ml ribocitrin sodium salt, 1.0% sucrose, 37° C.) it was 43%; in data set [1] (read-out: Percent inhibition, 50 μg/ml ribocitrin sodium salt, 2.0% sucrose, 37° C.), 33%. For the same compound, the inhibition at 100 µg/mL was found to be 60% in data set [1] (read-out: Percent inhibition, 100 μg/ml ribocitrin sodium salt, 0.5% sucrose, 37° C.); 71% in data set [1] (read-out: Percent inhibition, 100 μg/ml ribocitrin sodium salt, 1.0% sucrose, 37° C.); 73% in data set [1] (read-out: Percent inhibition, 100 μg/ml ribocitrin sodium salt, 2.0% sucrose, 37° C.). Further, the “Solubility in organic solvents” value in data set [2] (organic solvents) is recorded as “insoluble”. The Solubility in water result in data set [2] (water) was “Soluble”.
Regarding `O=C(O)CC[C@@](CC(=O)O)(O[C@H]1O[C@H](CO)[C@@H](O[C@H]2O[C@H](CO)[C@@H](O)[C@H]2O[C@H]2O[C@H](CO)[C@@H](O)[C@H]2O)[C@H]1O)C(=O)O` [ribocitrin, 2-(S)-[O-α-D-ribofuranosyl-(1→2)-O-α-D-ribofuranosyl-(1→3)-α-D-ribofuranosyloxy]-1,2,4-butanetricarboxylic acid], the “Inhibitory activity toward dextransucrase (in words)” value in the data set on dextransucrase is reported as “effective inhibitors of dextransucrase”.
